Experimental data from ChEMBL document CHEMBL1154301, “A naturally occurring brominated furanone covalently modifies and inactivates LuxS” (Bioorg Med Chem Lett, 2009).
The source made the active and inactive calls. The rule behind the calls is not given here.

How the values were obtained:
[1] = target: T1, S-ribosylhomocysteine lyase (Escherichia coli K-12) (UniProt P45578); test: Inhibition of Escherichia coli LuxS using S-ribosyl-homocysteine substrate at pH 7 after 10 mins by fluorimetric assay
T1 sequence (whole entry): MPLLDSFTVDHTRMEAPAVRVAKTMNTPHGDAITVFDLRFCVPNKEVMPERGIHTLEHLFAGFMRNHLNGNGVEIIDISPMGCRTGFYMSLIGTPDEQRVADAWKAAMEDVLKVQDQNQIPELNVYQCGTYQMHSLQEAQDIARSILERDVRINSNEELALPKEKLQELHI

[2] = target: T1, S-ribosylhomocysteine lyase (Escherichia coli K-12); test: Inhibition of Escherichia coli LuxS assessed as induction of covalent modification by UV/Vis absorbance spectroscopy
[3] = target: T1, S-ribosylhomocysteine lyase (Escherichia coli K-12); test: Inhibition of Escherichia coli LuxS assessed as induction of Cys126 alkylation by MALDI-MS method
[4] = target: T1, S-ribosylhomocysteine lyase (Escherichia coli K-12); test: Inhibition of Escherichia coli LuxS assessed as formation of enzyme-adduct formation by mass spectrometry
[5] = target: T1, S-ribosylhomocysteine lyase (Escherichia coli K-12); test: Inhibition of Escherichia coli LuxS using variable levels of S-ribosyl-homocysteine substrate at pH 7 after 10 mins by fluorimetric assay
[6] = target: T1, S-ribosylhomocysteine lyase (Escherichia coli K-12); test: Inhibition of Escherichia coli LuxS using variable levels of S-ribosyl-homocysteine substrate by UV/Vis absorbance spectroscopy; details: TDE = time-dependent effect

inhibition [1]	inhibition [2]	inhibition [3]	inhibition [4]	inhibition [5]	inhibition [6]	Structure (SMILES)
Dose-dependent effect	–	–	–	–	–	O=C1C=C/C(=C/Br)O1
Active	–	–	–	–	–	CCCCC1=CC(=C(Br)Br)OC1=O
Dose-dependent effect	Active	Active	Active	Active	tde	CCCCC1=C(Br)/C(=C/Br)OC1=O
Active	–	–	–	–	–	O=C1C=CC(=C(Br)Br)O1
